# Measurements as given in patent US20060127980A1, “Human excitatory amino acid transporter-2 gene promoter and uses thereof” (priority 2003, published 2006).
# How the values were obtained:
# hEAAT2 mRNA = assay: Northern blot of hEAAT2 mRNA in PHFA treated with modulators; type: cell-based, human; settings: 7-day treatment, EGF 30 ng/ml, TGF-α 30 ng/ml, dbcAMP 200 μM, bromo-cAMP 100 μM, TNF-α 200 U/ml
# Procedure: FIG. 4A-D. Effect of modulators of hEAAT2 activity on hEAAT2 expression and hEAAT2 promoter activity in PHFA. A. A Northern analysis of hEAAT2 and GAPDH mRNA expression following treatment with EGF (30 ng/ml), TGF-α (30 ng/ml), dbcAMP (200 μM, bromo-cAMP (100 μM) or TNF-α (200 U/ml) for 7 days. B. Nuclear run-on assays determining the relative rates of hEAAT2 and GAPDH transcription as a function of 7-day treatment with the same concentrations of the indicated agents. C. A time course of mRNA expression of hEAAT2 and GAPDH following treatment with EGF, bromo-cAMP or TNF-α (same concentrations as in A.). D. Fold luciferase activity in PHFA transfected with flhEAAT2Prom-luc or various deletion mutants of hEAAT2 and non-transfected controls treated with the indicated compounds for four days.
# Northern and Western Blotting Assays. Total cellular RNA was isolated by the guanidinium/phenol extraction method and Northern blotting was performed as described (Huang et al., 2001, Oncogene 20(48):7051-7063; Su et al., 2000, Oncogene 19(30):3411-3421; Su et al., 2001, Nucleic Acids Res 29(8):1661-1671). Western blotting assays were performed as described (Su et al., 1998, Proc Natl Acad Sci USA 95(24):14400-14405; Su et al., 2002, Oncogene 21(22):3592-602).
# Positive and Negative Regulation of hEAAT2 Transcription, Promoter Activity and mRNA Levels in PHFA. Several enhancers of GLT-1 expression in rat astrocytes have been identified, including epidermal growth factor (EGF), transforming growth factor-α (TGF-α) and dibutyryl cyclic AMP (dbcAMP) (Swanson et al., 1997, J Neurosci 17(3):932-940; Zelenaia et al., 2000, Mol Pharmacol 57(4):667-678). Based on these considerations, experiments were performed to determine if these agents similarly modify human hEAAT2 expression in PHFA. Consistent with previous observations in rat astrocytes, 7-day treatment with EGF, TGF-α, and two analogs of cAMP, dbcAMP and bromo-cAMP, stimulated hEAAT2 mRNA expression in PHFA, whereas TNF-α decreased expression (FIG. 4B). […] In contrast, TNF-α decreased expression by 48 h (FIG. 4C).
# hEAAT2 promoter = hEAAT2 promoter luciferase assay of agents in H4 glioma cells (FIG. 12); type: cell-based, human; settings: H4 malignant glioma cells; 10 μM
# Procedure: (§1) FIG. 12. Effect of various agents on hEAAT2 promoter activity in H4 human malignant glioma cells. A: ceftriaxone; B: amoxicillin; C: chloramphenicol; D: thiamphenicol; E: vancomycin; F: glycine; G: glutamate; H: DMSO; I: dibutyryl cAMP. H4 is a rare clone of malignant glioma cells that support hEAAT2 promoter activity. H4 cells were seeded at 5×10^4 cells/35-mm plate. Twenty-four h later cells were untreated (CON) or received the indicated compound at a final concentration of 10 μM. Forty-eight h later the cells were transfected with a FL pGL3/EAAT2 luciferase reporter construct (5 μg) plus a pSVβGalactosidase construct (1 μg) using the calcium phosphate precipitation method (Su et al. 2003, Proc. Natl. Acad. Sci. USA 100:1955-1960). After an additional 48 h, cell lysates were prepared and luciferase activity was determined using the Luciferase Assay System Kit (Promega, E1501) and luminescence determined using a luminometer (Turner Designs, TD20/20) (Su et al. 2003, Proc. Natl. Acad. Sci. USA 100:1955-1960). Data presented are the average of 3 independent plates±S.D. Qualitatively similar results were obtained in 2 additional experiments.
# as §1, with “H4, the third cell line examined,” for “FIG. 12. Effect of various agents on hEAAT2 promoter activity in H4 human malignant glioma cells. A: ceftriaxone; B: amoxicillin; C: chloramphenicol; D: thiamphenicol; E: vancomycin; F: glycine; G: glutamate; H: DMSO; I: dibutyryl cAMP. H4”, “activity. In the studies shown in FIG. 12,” for “activity.”
compound,measurement,setting,value
"CCCC(=O)Nc1ncnc2c1ncn2[C@@H]1O[C@@H]2COP(=O)(O)O[C@H]2[C@H]1OC(=O)CCC [dbcAMP, dibutyryl cyclic AMP]",hEAAT2 mRNA expression,hEAAT2 mRNA,stimulated
same,hEAAT2 promoter activity,hEAAT2 promoter,potent stimulators
